Measured values as given in US9199941B2, “Pyrazole indanyl carboxamides” (BAYER CROPSCIENCE AG, priority 2012, dated 2015).

Assays:
[1] = tested on: Septoria tritici; experiment: In vivo preventive test on Septoria tritici (leaf spot on wheat); details: 500 ppm, preventive spray, wheat plants, grading 24 days after contamination
Description: Wheat plants (“Scipion” variety), sown in starter cups on a 50/50 peat soil-pozzolana substrate and grown at 22° C., are treated at the 1-leaf stage (10 cm height) by spraying with the active ingredient prepared as described above. Plants, used as controls, are treated with the mixture of acetone/tween/DMSO/water not containing the active material. After 24 hours, the plants are contaminated by spraying the leaves with an aqueous suspension of cryopreserved Septoria tritici spores (500 000 spores per ml). […] Grading (% of efficacy) is carried out 24 days after the contamination, in comparison with the control plants.

[2] = tested on: Puccinia recondita; experiment: In vivo preventive test on Puccinia recondita (brown rust on wheat); details: preventive spray, wheat plants, grading 12 days after contamination
Description: Plants, used as controls, are treated with the mixture of acetone/tween/DMSO/water not containing the active material. After 24 hours, the plants are contaminated by spraying the leaves with an aqueous suspension of Puccinia […] spores (100 000 spores per ml). […] Grading (% of efficacy) is carried out 12 days after the contamination, in comparison with the control plants.

[3] = log P by HPLC on reversed phase columns (EEC directive 79/831 Annex V.A8); assay type: physicochemical; details: Table 1, compounds of formula (I); method [a]: LC-MS at pH 2.7, 0.1% formic acid in water / acetonitrile
[4] = tested on: Uromyces appendiculatus; experiment: In vivo preventive test on Uromyces appendiculatus (bean rust); details: preventive spray, bean plants, grading 11 days after contamination
Description: Bean plants (“Saxa” variety), sown in starter cups on a 50/50 peat soil-pozzolana substrate and grown at 24° C., are treated at the 2-leaf stage (9 cm height) by spraying with the active ingredient prepared as described above. Plants, used as controls, are treated with the mixture of acetone/tween/DMSO/water not containing the active material. After 24 hours, the plants are contaminated by spraying the leaves with an aqueous suspension of Uromyces appendiculatus spores (150 000 spores per ml). […] Grading (% of efficacy) is carried out 11 days after the contamination, in comparison with the control plants.

[5] = tested on: Sphaerotheca fuliginea; experiment: In vivo preventive test on Sphaerotheca fuliginea (powdery mildew on cucurbits); details: preventive spray, gherkin plants, grading 12 days after contamination
Description: Gherkin plants (“Vert petit de Paris” variety), sown in starter cups on a 50/50 peat soil-pozzolana substrate and grown at 24° C., are treated at the Z11 cotyledon stage by spraying with the active ingredient prepared as described above. Plants, used as controls, are treated with the mixture of acetone/tween/DMSO/water not containing the active material. After 24 hours, the plants are contaminated by spraying the cotyledons with an aqueous suspension of Sphaerotheca fuliginea spores (100 000 spores per ml). The spores are collected from infected plants. The contaminated gherkin plants are incubated at about 20° C. and at 70-80% relative humidity. Grading (% of efficacy) is carried out 12 days after the contamination, in comparison with the control plants.

[6] = tested on: Pyrenophora teres; experiment: In vivo preventive test on Pyrenophora teres (net blotch on barley); details: preventive spray, barley plants, incubated 48 hours then 12 days; for Eff. %: 500 ppm; for Efficacy: 100 ppm
Description: Barley plants (“Plaisant” variety), sown in starter cups on a 50/50 peat soil-pozzolana substrate and grown at 22° C., are treated at the 1-leaf stage (10 cm height) by spraying with the active ingredient prepared as described above. Plants, used as controls, are treated with the mixture of acetone/tween/DMSO/water not containing the active material. After 24 hours, the plants are contaminated by spraying the leaves with an aqueous suspension of Pyrenophora teres spores (12 000 spores per ml). The spores are collected from a 12-day-old culture.

[7] = tested on: Alternaria brassicae; experiment: In vivo preventive test on Alternaria brassicae (leaf spot on radish); details: 500 ppm, preventive spray, radish plants, grading 6 days after contamination
Description: Radish plants (“Pernod Clair” variety), sown in starter cups on a 50/50 peat soil-pozzolana substrate and grown at 17° C., are treated at the cotyledon stage by spraying with the active ingredient prepared as described above. Plants, used as controls, are treated with the mixture of acetone/tween/DMSO/water not containing the active material. After 24 hours, the plants are contaminated by spraying the cotyledons with an aqueous suspension of Alternaria brassicae spores (50 000 spores per ml). The spores are collected from a 15-day-old culture. […] Grading (% of efficacy) is carried out 6 days after the contamination, in comparison with the control plants.

[8] = tested on: Botrytis cinerea; experiment: In vivo preventive test on Botrytis cinerea (grey mould), gherkin; details: preventive spray, gherkin plants, grading 4 to 5 days after contamination
Description: Gherkin plants (“Vert petit de Paris” variety), sown in starter cups on a 50/50 peat soil-pozzolana substrate and grown at 24° C., are treated at the Z11 cotyledon stage by spraying with the active ingredient prepared as described above. Plants, used as controls, are treated with the mixture of acetone/tween/DMSO/water not containing the active material. After 24 hours, the plants are contaminated by spraying the cotyledons with an aqueous suspension of cryopreserved Botrytis cinerea spores (50 000 spores per ml). The spores are suspended in a nutrient solution composed of 10 g/L of PDB, 50 g/L of D-Fructose, 2 g/L of NH4NO3 and 1 g/L of KH2PO4. The contaminated gherkin plants are incubated at 17° C. and at 90% relative humidity. Grading (% of efficacy) is carried out 4 to 5 days after the contamination, in comparison with the control plants.

[9] = tested on: Phakopsora pachyrhizi; experiment: In vivo Phakopsora test (soybeans) / preventive; details: 10 ppm of active ingredient, evaluated 7 days after the inoculation
Description: [table] To produce a suitable preparation of active compound, 1 part by weight of active compound is mixed with the stated amounts of solvent and emulsifier, and the concentrate is diluted with water to the desired concentration. To test for preventive activity, young plants are sprayed with the preparation of active compound at the stated rate of application. […] The plants remain in the incubation cabinet at approximately 24° C. and a relative atmospheric humidity of approximately 80% and a day/night interval of 12 h.

logP [3]	Compound	Eff. % [1] [%]	Eff. % ([2]; 500 ppm) [%]	Eff. % ([4]; 500 ppm) [%]	Eff. % ([5]; 500 ppm) [%]	Eff. % [6] [%]	Eff. % [7] [%]	Eff. % ([8]; 500 ppm) [%]	Efficacy [6]	Eff. % [9] [%]	Eff. % ([2]; 100 ppm) [%]	Eff. % ([4]; 100 ppm) [%]	Eff. % ([5]; 100 ppm) [%]	Eff. % ([8]; 100 ppm) [%]
3.46[a]	CC1CC2(CC2(Cl)Cl)c2cccc(NC(=O)c3cn(C)nc3C(F)F)c21 (stereo not shown) [Example 3]	100	94	100	100	81								
2.78[a]	CC1CCc2cccc(NC(=O)c3cn(C)nc3C(F)F)c21 (stereo not shown) [Example 9]	97	100	100		96	92		at least 70%					
3.62[a]	CCC1(C)CCc2c(NC(=O)c3cn(C)nc3C(F)F)cccc21 (stereo not shown) [Example 24]	92	98	97	98	80								
3.13[a]	CC1CC2(CC2)c2cccc(NC(=O)c3cn(C)nc3C(F)F)c21 (stereo not shown) [Example 25]	92	100	99	100	96	93	88		94				
4.61[a]	CC1CC2(CC2)c2cccc(NC(=S)c3cn(C)nc3C(F)F)c21 (stereo not shown) [Example 38]		83				71		70%					
4.2[a]	CC1CC2(CCCCC2)c2cccc(NC(=O)c3cn(C)nc3C(F)F)c21 (stereo not shown) [Example 46]										100	100	100	75
3.24[a]	CC1CC2(CC2)c2cccc(NC(=O)c3cn(C)nc3I)c21 (stereo not shown) [Example 52]										90	100	88	87
4.67[a]	CC1CC2(CCCCC2)c2cccc(NC(=S)c3cn(C)nc3C(F)F)c21 (stereo not shown) [Example 53]										100	100	100	82

Further lines, the compound ahead of its results:

Compound	logP [3]	Eff. % [1] [%]	Eff. % ([2]; 500 ppm) [%]	Eff. % ([4]; 500 ppm) [%]	Eff. % ([5]; 500 ppm) [%]	Eff. % [6] [%]	Eff. % [7] [%]	Eff. % ([8]; 500 ppm) [%]	Efficacy [6]	Eff. % [9] [%]	Eff. % ([2]; 100 ppm) [%]	Eff. % ([4]; 100 ppm) [%]	Eff. % ([5]; 100 ppm) [%]	Eff. % ([8]; 100 ppm) [%]
CC1CC(C(C)C)c2cccc(NC(=O)c3cn(C)nc3C(F)F)c21 (stereo not shown) [Example 6]	3.82[a]	92	100	100	97	96	100							
CC1CC(C)c2c(NC(=O)c3cn(C)nc3C(F)F)cccc21 (stereo not shown) [Example 8]	3.21[a]	91	100	100	95	88		100						
CCCON=C1CC(C)c2c(NC(=O)c3cn(C)nc3C(F)F)cccc21 (stereo not shown) [Example 11]	3.26[a]		81	90		83	93							
Cn1cc(C(=O)Nc2cccc3c2CCC32OCCO2)c(C(F)F)n1 [Example 12]	1.9[a]		83				86							
CC1CC(CC(C)(C)C)c2cccc(NC(=O)c3cn(C)nc3C(F)F)c21 (stereo not shown) [Example 18]	4.44[a]	93	100	100	100		83							
CCCON=C1CC(C)c2c(NC(=O)c3c(C)nn(C)c3F)cccc21 (stereo not shown) [Example 19]	3.24[a]		81	93	89	75								
Cc1nn(C)c(F)c1C(=O)Nc1cccc2c1C(C)CC2CC(C)C (stereo not shown) [Example 20]	4.32[a]	79	100	100	98	97	93							
CON=C1CC(C)c2c(NC(=O)c3c(C)nn(C)c3F)cccc21 (stereo not shown) [Example 27]	2.33[a]		86				75							
CC(C)CC1CC(C)c2c(NC(=O)c3cn(C)nc3C(F)F)cccc21 (stereo not shown) [Example 33]	4.24[a]	93	98	100	100	97	97							
CCON=C1CC(C)c2c(NC(=O)c3cn(C)nc3C(F)F)cccc21 (stereo not shown) [Example 34]	2.78[a]	86	81	97		83	86							
CC1CC2(CC2)c2cccc(NC(=S)c3cn(C)nc3C(F)(F)F)c21 (stereo not shown) [Example 41]			100	100	98		75							
CC1CC(CC(C)(C)C)c2cccc(NC(=S)c3cn(C)nc3C(F)F)c21 (stereo not shown) [Example 42]		88	98	100	100		75							
CC(C)CC1CC(C)c2c(NC(=S)c3cn(C)nc3C(F)F)cccc21 (stereo not shown) [Example 44]		88	100	100	100		95	73						
